Tests used:
[1] = test system: PC-3 tumor-bearing NRG mouse; assay: Longitudinal SPECT/CT imaging in PC-3 tumor-bearing mice; assay type: in vivo, mice (NRG); conditions: SPECT/CT images
Procedure: The PC-3 tumor-bearing mice were sedated (2.5% isoflurane in O2) and injected with ^177Lu-labeled ligands (15–32 MBq) through a lateral caudal tail vein. […] At each time point, a 5 min CT scan was obtained using 615 μA and 60 kV parameters for localization and attenuation, followed by 2 × 30 min static SPECT scans acquired in list mode with an energy window centered around 208 keV. The MILabs U-SPECT II reconstruction software (version 8.00) was used to reconstruct data, and the images were decay corrected to the time of injection with PMOD v 3.402 (PMOD Technologies GmbH, Fallanden, Switzerland).

[2] = LogD7.4 measurement, shake flask method; assay type: physicochemical; conditions: n-octanol/DPBS pH 7.4, n = 3
Procedure: The logD7.4 values of all the ^177Lu-labeled GRPR-targeted ligands were measured using the shake flask method as previously reported. An aliquot (~2 MBq) of the radiolabeled product was added to a mixture of n-octanol (3 mL) and DPBS (3 mL, pH 7.4), followed by 1 min vortexing and 15 min centrifugation at 5000 rpm. Samples of the n-octanol (1 mL) and buffer (1 mL) layers were collected, and the activity was counted using a gamma counter. The logD7.4 values were calculated using the following equation: logD7.4=log10[countsn−octanolphase/countsbutterphase]

[3] = Ex vivo biodistribution in PC-3 tumor-bearing mice; conditions: mouse; for tissue to tissue ratio at 1 h / tissue to tissue ratio at 4 h / tissue to tissue ratio at 24 h / tissue to tissue ratio at 72 h / tissue to tissue ratio at 120 h: male, NOD.Cg-Rag1^tm1Mom Il2rg^tm1Wjl/SzJ (NRG), total radioactivity; for tissue to tissue ratio at 4 h / tissue uptake at 4 h: 4 h post-injection; for tissue to tissue ratio at 24 h / tissue uptake at 24 h: 24 h post-injection; for tissue to tissue ratio at 72 h / tissue uptake at 72 h: 72 h post-injection; for tissue to tissue ratio at 120 h / tissue uptake at 120 h: 120 h post-injection
Procedure: SPECT/CT imaging experiments were performed using an MILabs (Houten, The Netherlands) U-SPECT-II/CT scanner with a custom-made ultra-high-sensitivity big mouse collimator (2 mm pinhole size) following previously reported procedures. […] Male NOD.Cg-Rag1^tm1Mom Il2rg^tm1Wjl/SzJ (NRG) mice were used in these experiments because of their immunodeficient characteristics and excellent radiation tolerance. Mice were anaesthetized and subcutaneously implanted with 5 × 10^6 PC-3 prostate cancer cells (100 µL; 1:1 PBS/Matrigel) behind the left shoulder. SPECT/CT imaging and biodistribution studies were performed once the tumors reached a diameter of 5–8 mm, typically after approximately 4 weeks of growth.
For ex vivo biodistribution studies, the mice were injected with ~2–6 MBq of the radioligand. […] Blocking study was conducted at 1 h post-injection via co-injection of the radioligand with 100 μg of [D-Phe^6,Leu-NHEt^13,des-Met^14]Bombesin(6–14). Organs/tissues of interested were collected, weighed, and measured using an automatic gamma counter.

[4] = tumor/blood, Tumor/blood uptake ratio
[5] = tumor/kidney, Tumor/kidney uptake ratio
[6] = tumor/muscle, Tumor/muscle uptake ratio
[7] = tumor/pancreas, Tumor/pancreas uptake ratio
[8] = PC-3 tumor, Uptake in PC-3 tumor
[9] = adrenal glands, Uptake in adrenal glands
[10] = large intestine, Uptake in large intestine

excretion pathway [1]: excreted mainly via the renal pathway
logD [2]: -2.76 ± 0.1
tissue to tissue ratio at 1 h ([3]; tumor/blood, Tumor/blood uptake ratio, 1 h blocked (co-injected with 100 µg [D-Phe6,Leu-NHEt13,des-Met14]Bombesin(6-14))): 5.32 ± 0.87
tissue to tissue ratio at 1 h ([3]; tumor/blood, Tumor/blood uptake ratio, 1 h post-injection): 15.9 ± 1.55
tissue to tissue ratio at 4 h [3, 4]: 234 ± 53.9
tissue to tissue ratio at 24 h [3, 4]: 1220 ± 229
tissue to tissue ratio at 72 h [3, 4]: 1330 ± 177
tissue to tissue ratio at 120 h [3, 4]: 1310 ± 412
tissue to tissue ratio at 1 h ([3]; tumor/kidney, Tumor/kidney uptake ratio, 1 h blocked (co-injected with 100 µg [D-Phe6,Leu-NHEt13,des-Met14]Bombesin(6-14))): 0.85 ± 0.1
tissue to tissue ratio at 1 h ([3]; tumor/kidney, Tumor/kidney uptake ratio, 1 h post-injection): 2.96 ± 0.43
tissue to tissue ratio at 4 h [3, 5]: 3.27 ± 0.89
tissue to tissue ratio at 24 h [3, 5]: 4.86 ± 0.64
tissue to tissue ratio at 72 h [3, 5]: 8.92 ± 1.62
tissue to tissue ratio at 120 h [3, 5]: 11.3 ± 1.27
tissue to tissue ratio at 1 h ([3]; tumor/muscle, Tumor/muscle uptake ratio, 1 h blocked (co-injected with 100 µg [D-Phe6,Leu-NHEt13,des-Met14]Bombesin(6-14))): 21.5 ± 3.27
tissue to tissue ratio at 1 h ([3]; tumor/muscle, Tumor/muscle uptake ratio, 1 h post-injection): 76.2 ± 10.1
tissue to tissue ratio at 4 h [3, 6]: 392 ± 101
tissue to tissue ratio at 24 h [3, 6]: 651 ± 95
tissue to tissue ratio at 72 h [3, 6]: 647 ± 311
tissue to tissue ratio at 120 h [3, 6]: 776 ± 314
tissue to tissue ratio at 1 h ([3]; tumor/pancreas, Tumor/pancreas uptake ratio, 1 h blocked (co-injected with 100 µg [D-Phe6,Leu-NHEt13,des-Met14]Bombesin(6-14))): 1.17 ± 0.31
tissue to tissue ratio at 1 h ([3]; tumor/pancreas, Tumor/pancreas uptake ratio, 1 h post-injection): 0.99 ± 0.11
tissue to tissue ratio at 4 h [3, 7]: 1.87 ± 0.37
tissue to tissue ratio at 24 h [3, 7]: 2.22 ± 0.25
tissue to tissue ratio at 72 h [3, 7]: 4.58 ± 0.68
tissue to tissue ratio at 120 h [3, 7]: 6.6 ± 1.14
tissue uptake at 1 h ([3]; PC-3 tumor, 100 ug, Uptake in PC-3 tumor, 1 h blocked (co-injected with 100 µg [D-Phe6,Leu-NHEt13,des-Met14]Bombesin(6-14))): 2.99 ± 0.42 %ID/g
tissue uptake at 1 h ([3]; PC-3 tumor, Uptake in PC-3 tumor, 1 h post-injection): 11 ± 1.03 %ID/g
tissue uptake at 4 h [3, 8]: 10.1 ± 1.4 %ID/g
tissue uptake at 24 h [3, 8]: 6.9 ± 1.34 %ID/g
tissue uptake at 72 h [3, 8]: 4.72 ± 1.42 %ID/g
tissue uptake at 120 h [3, 8]: 2.23 ± 0.33 %ID/g
tissue uptake at 1 h ([3]; adrenal glands, 100 ug, Uptake in adrenal glands, 1 h blocked (co-injected with 100 µg [D-Phe6,Leu-NHEt13,des-Met14]Bombesin(6-14))): 0.54 ± 0.24 %ID/g
tissue uptake at 24 h [3, 9]: 0.98 ± 0.18 %ID/g
tissue uptake at 120 h [3, 9]: 0.25 ± 0.05 %ID/g
tissue uptake at 1 h ([3]; blood, 100 ug, Uptake in blood, 1 h blocked (co-injected with 100 µg [D-Phe6,Leu-NHEt13,des-Met14]Bombesin(6-14))): 0.58 ± 0.16 %ID/g
tissue uptake at 4 h ([3]; blood, Uptake in blood): 0.04 ± 0.01 %ID/g
tissue uptake at 24 h ([3]; blood, Uptake in blood): 0.01 %ID/g
tissue uptake at 1 h ([3]; bone, 100 ug, Uptake in bone, 1 h blocked (co-injected with 100 µg [D-Phe6,Leu-NHEt13,des-Met14]Bombesin(6-14))): 0.08 ± 0.02 %ID/g
tissue uptake at 4 h ([3]; bone, Uptake in bone): 0.05 ± 0.03 %ID/g
tissue uptake at 24 h ([3]; bone, Uptake in bone): 0.02 ± 0.01 %ID/g
tissue uptake at 72 h ([3]; bone, Uptake in bone): 0.02 ± 0.01 %ID/g
tissue uptake at 120 h ([3]; bone, Uptake in bone): 0.01 %ID/g
tissue uptake at 1 h ([3]; brain, 100 ug, Uptake in brain, 1 h blocked (co-injected with 100 µg [D-Phe6,Leu-NHEt13,des-Met14]Bombesin(6-14))): 0.02 %ID/g
tissue uptake at 1 h ([3]; fat, 100 ug, Uptake in fat, 1 h blocked (co-injected with 100 µg [D-Phe6,Leu-NHEt13,des-Met14]Bombesin(6-14))): 0.07 ± 0.02 %ID/g
tissue uptake at 1 h ([3]; fat, Uptake in fat, 1 h post-injection): 0.07 ± 0.02 %ID/g
tissue uptake at 4 h ([3]; fat, Uptake in fat): 0.01 %ID/g
tissue uptake at 24 h ([3]; fat, Uptake in fat): 0.01 %ID/g
tissue uptake at 1 h ([3]; heart, 100 ug, Uptake in heart, 1 h blocked (co-injected with 100 µg [D-Phe6,Leu-NHEt13,des-Met14]Bombesin(6-14))): 0.2 ± 0.06 %ID/g
tissue uptake at 1 h ([3]; heart, Uptake in heart, 1 h post-injection): 0.22 ± 0.01 %ID/g
tissue uptake at 72 h ([3]; heart, Uptake in heart): 0.02 %ID/g
tissue uptake at 120 h ([3]; heart, Uptake in heart): 0.01 %ID/g
tissue uptake at 1 h ([3]; kidneys, 100 ug, Uptake in kidneys, 1 h blocked (co-injected with 100 µg [D-Phe6,Leu-NHEt13,des-Met14]Bombesin(6-14))): 3.56 ± 0.77 %ID/g
tissue uptake at 1 h ([3]; kidneys, Uptake in kidneys, 1 h post-injection): 3.77 ± 0.58 %ID/g
tissue uptake at 4 h ([3]; kidneys, Uptake in kidneys): 2.67 ± 0.49 %ID/g
tissue uptake at 24 h ([3]; kidneys, Uptake in kidneys): 1.46 ± 0.42 %ID/g
tissue uptake at 72 h ([3]; kidneys, Uptake in kidneys): < 1 %ID/g
tissue uptake at 120 h ([3]; kidneys, Uptake in kidneys): 0.2 ± 0.02 %ID/g
tissue uptake at 1 h ([3]; large intestine, Uptake in large intestine, 1 h post-injection): 1 ± 0.15 %ID/g
tissue uptake at 4 h [3, 10]: 1.15 ± 0.38 %ID/g
tissue uptake at 24 h [3, 10]: 0.44 ± 0.11 %ID/g
tissue uptake at 1 h ([3]; liver, 100 ug, Uptake in liver, 1 h blocked (co-injected with 100 µg [D-Phe6,Leu-NHEt13,des-Met14]Bombesin(6-14))): 0.26 ± 0.05 %ID/g
Compound: CC(C)C[C@H](NC(=O)[C@H](Cc1cnc[nH]1)N(C)C(=O)CNC(=O)[C@@H](NC(=O)[C@H](C)NC(=O)[C@H](Cc1c[nH]c2ccccc12)NC(=O)[C@H](CCC(N)=O)NC(=O)[C@@H](Cc1ccccc1)NC(=O)CN1CCC(NC(=O)CN2CCN(CC(=O)O)CCN(CC(=O)O)CCN(CC(=O)O)CC2)CC1)C(C)(C)C)C(=O)N1CSC[C@H]1C(N)=O [[^177Lu]Lu-LW01110, metal not drawn]

Reference: article PMC12030706, “Novel ^177Lu-Labeled [Thz^14]Bombesin(6–14) Derivatives with Low Pancreas Accumulation for Targeting Gastrin-Releasing Peptide Receptor-Expressing Cancer” (Pharmaceuticals, 2025)
